Results taken from patent US20050152835A1, “Technetium-99M glucarate methods of use for monitoring tissues” (priority 2003, published 2005).

Experiments:
adenosine A1 receptor = molecular target: T1, adenosine A1 receptor (Rattus norvegicus, UniProt P25099); experiment: Adenosine receptor-mediated cardioprotection in rat hearts with ischemia-reperfusion, assessed by 99mTc-glucarate imaging; format: in vivo
T1 construct: from tissue; host or cells: living rat, heart (myocardium) in vivo
T1 sequence (P25099 1-326): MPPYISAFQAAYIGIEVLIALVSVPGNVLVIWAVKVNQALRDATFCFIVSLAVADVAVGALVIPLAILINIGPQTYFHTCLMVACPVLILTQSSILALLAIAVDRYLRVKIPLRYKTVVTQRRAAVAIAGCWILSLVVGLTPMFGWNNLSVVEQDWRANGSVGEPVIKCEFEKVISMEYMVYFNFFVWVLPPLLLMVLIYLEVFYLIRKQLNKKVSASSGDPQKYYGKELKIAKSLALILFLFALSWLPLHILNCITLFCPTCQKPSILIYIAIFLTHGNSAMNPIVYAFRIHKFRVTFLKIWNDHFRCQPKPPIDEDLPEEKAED
Experimental: Experimental groups in this example included: Group-I (IR30, n=11): Animals subjected to a treatment of 30-min regional myocardial ischemia and 30-min reperfusion by ligating and releasing the left coronary artery (LCA). Group-II: (IPC Group, n=6): Rats were preconditioned with a sequence of 6 cycles of 4-min LCA occlusion and 4-min re-flow; 10 min later, the rats underwent a 30-min LCA occlusion followed by 30-min re-flow. Group-III (CCPA, n=6): rat chests were opened for the equivalent time for IPC in Group-II. Ten minutes prior to 30-min LCA occlusion and 30-min reperfusion, CCPA (40 μg/kg) was intravenously injected with 5 cycles of 4-min infusion and 4-min no infusion. Group-IV (SPT, n=5): animals subjected to IPC as the protocol in Group-II, SPT (10 mg/kg) was intravenously infused 2-min before and during subsequent ischemia-reperfusion.
Treatments in this example consisted of control (IR30, n=8): no preconditioning; equivalent open-chest time; IPC (n=6): 4-min LCA occlusion, 4-min reflow, 5 cycles; CCPA (n=6): 4-min IV infusion, 4-min no infusion, 5 cycles; SPT (n=4): IPC first, SPT IV infusion 2 min before and during LCA occlusion and re-flow.

[1] = tested on: plasmocytoma (localized myeloma); experiment: Scintigraphy of a patient with plasmocytoma of T8; format: in vivo, human; conditions: for scan finding at diagnosis: patient with lytic lesion of T8, posterior view
Experimental: A patient complaining of invalidation pain in the spine (mid-thorax) for about two months. Peak of monoclonal IgG-k in serum. Bence-Jones protein in urine. Spine CT. lytic lesion of T8, with soft tissue infiltration. […] Uptake was obvious in the early images, 15 and 30 min p.i., late acquisition, 6 hr p.i., made the tracer uptake much more obvious.

MCF7/S tumor xenograft = experiment: FASTSPECT dynamic imaging and tumor washout kinetics, drug-sensitive xenograft; format: in vivo, SCID mice
Experimental: (§1) Tumor cell lines used. MCF7/S: Cells are parental, drug (doxorubicin) sensitive, breast carcinoma cells. MCF7/D40: Cells were generated in vitro by successive culturing parental MCF7 cells in slowly increasing concentrations of doxorubicin with a total selection time of 31 months. Twenty-eight SCID mice were studied. MCF7/S or MCF7/D40 tumors were grown for 10-14 days after subcutaneous injection of 1×10^6 cells into the right thigh. Groups of mice with the xenografted tumors included: (MCF7/S group: MIBI: n=9; GLA: n=8) and (MCF7/D40 group: MIBI: n=6; GLA: n=5).
(§2) The dynamic imaging system SPECT consisted of 24 small modular gamma cameras. Each modular camera consists of a 10 cm×10 cm NaI(Tl) scintillation crystal, 4 square (5 cm×5 cm) Hamamatsu photomultiplier tubes. The system included a cylindrical aperture with twenty four 1-mm diameter pinholes drilled in the aperture. A point source in the center of the field of view is projected simultaneously to the center of each camera. Total magnification is 3.5 in a 3.0 cm×3.2 cm×3.2 cm field of view. The spatial resolution of the system is about 1.0 mm, with a sensitivity of 13.3 cps/μCi.
(§3) ^99mTc-GLA or ^99mTc-MIBI (5-8 mCi, 185-296 MBq) was injected via a jugular vein catheter. Dynamic images were acquired for 2 hours. Twenty-four projections were obtained, one from each camera. Each scintillation event within the camera's NaI crystal was registered as the digitized outputs from the camera's four photomultiplier tubes. The four photomultiplier outputs were compared to a 20-bit look-up table derived from a calibration procedure that involved moving a collimated source across the camera face.
(§4) Tumor image reconstruction was performed using 100 iterations of the maximum-likelihood expectation-maximization (ML-EM) algorithm. Using SlicerDicer software, three-dimensional images were computed to provide images in a 33×49×49 voxels format, and generate tomographic transaxial, coronal and sagittal slices with one-pixel thickness (1.0 mm). Regions of interest (ROI) over the tumors were created and applied to the dynamic images for determining time-activity curves. The percent washout rate relative to the peak uptake of the tumors were calculated.

MCF7/D40 tumor xenograft = experiment: FASTSPECT dynamic imaging and tumor washout kinetics, drug-resistant (Pgp positive) xenograft; format: in vivo, SCID mice; conditions: for time window after injection in which tumor could be localized/visualized: then activity dropped to background
Experimental: as §1, §2, §3, §4

MCF7/S tumors = experiment: Biodistribution in mice bearing MCF7/S tumors; format: in vivo, SCID mice
Experimental: as §1, §3
(§5) Tumors and organs were harvested and counted in a dose calibrator. The percent injected dose per gram (% ID/g) was calculated. Membrane preparations made from MCF7/S and MCF7/D40 tumors were immunoblotted with the mouse monoclonal antibody C219 against Pgp followed by a secondary antibody, which was detected by chemiluminescence. […] No immunodetectable MDR1 Pgp was presented in MCF7/S cells.

MCF7/D40 tumors = experiment: Biodistribution in mice bearing MCF7/D40 tumors; format: in vivo, SCID mice
Experimental: as §1, §3, §5

breast cancer = conditions: cited from earlier work
MCF7/D40 cells = experiment: Drug resistance of MCF7/D40 cells relative to MCF7/S; format: cell-based, human
[2] = Table 2, MCF7/S mice, 2 hours after injection
[3] = Table 4 (Example 3), MCF7/S mice
[4] = Table 2, MCF7/D40 mice, 2 hours after injection
[5] = Table 4 (Example 3), MCF7/D40 mice

## OC[C@H]1O[C@@H](n2cnc3c(NC4CCCC4)nc(Cl)nc32)[C@H](O)[C@@H]1O [CCPA, 2-chloro-N6-cyclopentyladenosine]
Adenosine A1 receptor; 40 μg/kg i.v. instead of IPC, before 30-min LCA occlusion and 30-min reperfusion
  effect on cardioprotection of ischemic preconditioning (IPC): simulated

## Cn1c(=O)c2[nH]c(-c3ccc(S(=O)(=O)O)cc3)nc2n(C)c1=O [SPT, 8-(p-sulfophenyl)-theophylline]
Adenosine A1 receptor; 10 mg/kg i.v. infusion after IPC, before and during ischemia-reperfusion
  effect on cardioprotection of ischemic preconditioning (IPC): blocked

## O.O.O=P([O-])([O-])CP(=O)([O-])[O-].[99Tc+4] [^99mTc-MDP]
[1]
  scan finding at diagnosis: focally increased uptake corresponding to T8
[1]; posterior view
  scan finding after about 1 year of stabilization and external radiotherapy: inhomogeneous tracer distribution, without clear focally increased uptake

## [C-]#[N+]CC(C)(C)OC.[C-]#[N+]CC(C)(C)OC.[C-]#[N+]CC(C)(C)OC.[C-]#[N+]CC(C)(C)OC.[C-]#[N+]CC(C)(C)OC.[C-]#[N+]CC(C)(C)OC.[Tc] [^99mTc-sestamibi, reference compound]
MCF7/S tumor xenograft
  two-hour fractional washout (% peak activity): 50.2±5.3%
MCF7/S tumor xenograft; FASTSPECT, 120 min acquisition
  time after injection until which tumor stayed visualized/detectable: 120 min
MCF7/D40 tumor xenograft
  two-hour fractional washout (% peak activity): 71.7±1.7%
  time window after injection in which tumor could be localized/visualized: 2 to 4 min
MCF7/D40 tumor xenograft; listed as 99mTc-MIBI
  time window after injection in which tumor could be localized/visualized: 2 to 3 min
MCF7/S tumors; [2]
  Biodistribution, blood: 0.06 ± 0.01 % ID/gm
  Biodistribution, heart: 10.61 ± 0.89 % ID/gm
  Biodistribution, kidneys: 21.32 ± 2.03 % ID/gm
  Biodistribution, liver: 7.02 ± 1.01 % ID/gm
  Biodistribution, lung: 0.95 ± 0.16 % ID/gm
  Biodistribution, muscle: 1.37 ± 0.12 % ID/gm
  Biodistribution, tumor: 0.64 ± 0.07 % ID/gm
MCF7/S tumors; [3]
  Biodistribution, blood: 0.06 ± 0.01 % ID/g
  Biodistribution, heart: 10.61 ± 0.89 % ID/g
  Biodistribution, kidneys: 21.32 ± 2.03 % ID/g
  Biodistribution, liver: 7.02 ± 1.01 % ID/g
  Biodistribution, lung: 0.95 ± 0.16 % ID/g
  Biodistribution, muscle: 1.37 ± 0.12 % ID/g
  Biodistribution, tumor: 0.64 ± 0.07 % ID/g
  Tumor/Blood ratio: 13.97 ± 2.89
  Tumor/Muscle ratio: 0.48 ± 0.05
MCF7/D40 tumors; [4]
  Biodistribution, blood: 0.07 ± 0.01 % ID/gm
  Biodistribution, heart: 9.78 ± 1.65 % ID/gm
  Biodistribution, kidneys: 17.71 ± 3.13 % ID/gm
  Biodistribution, liver: 7.67 ± 1.52 % ID/gm
  Biodistribution, lung: 0.61 ± 0.12 % ID/gm
  Biodistribution, muscle: 1.09 ± 0.32 % ID/gm
  Biodistribution, tumor: 0.27 ± 0.05 % ID/gm
MCF7/D40 tumors; [5]
  Biodistribution, blood: 0.07 ± 0.01 % ID/g
  Biodistribution, heart: 9.84 ± 1.39 % ID/g
  Biodistribution, kidneys: 19.63 ± 3.48 % ID/g
  Biodistribution, liver: 8.29 ± 1.43 % ID/g
  Biodistribution, lung: 0.61 ± 0.10 % ID/g
  Biodistribution, muscle: 1.08 ± 0.27 % ID/g
  Biodistribution, tumor: 0.27 ± 0.05 % ID/g
  Tumor/Blood ratio: 3.93 ± 0.41
  Tumor/Muscle ratio: 0.31 ± 0.05
[1]
  scan finding at diagnosis: negative for bone marrow infiltration
Breast cancer; in vivo
  negative predictive value: 83.4%
  overall institutional sensitivity for breast cancer detection: 75.4%
  overall institutional specificity for breast cancer detection: 82.7%
  positive predictive value: 74.5%
Breast cancer; tumors under 1 cm
  sensitivity for tumors under 1 cm in size: 48.2%

## COc1cccc2c1C(=O)c1c(O)c3c(c(O)c1C2=O)C[C@@](O)(C(=O)CO)C[C@@H]3O[C@H]1C[C@H](N)[C@H](O)[C@H](C)O1 [doxorubicin]
MCF7/D40 cells
  resistance of MCF7/D40 compared to MCF7/S: 40 fold
